From patent US6677460B1, “Aromatic carboxylic acid bicyclic sulfur compounds” (Idemitsu Kosan Company, Limited, priority 1993, dated 2004)

Experiments:
Type in all cases: in vivo
cocklebur [1] = experiment: Upland soil treatment test (8); details: 1000 g a.i./hectare, 20th day after spraying
Procedure: (§1) 90 Parts by weight of the above carrier and 10 parts by weight of each of Compounds obtained in the above Preparation Examples were uniformly pulverized and mixed to obtain herbicides. Further, for Herbicide Comparative Examples, comparative herbicides were prepared by uniformly pulverizing and mixing 90 parts by weight of the above carrier and 10 parts by weight of each of the following Compounds x, y, A, B and C.
(§2) (8) Biological Test (Upland Soil Treatment Test, Herbicide Examples 48-52 and Herbicide Comparative Examples 13 and 14)
(§3) Seeds of weeds such as large crabgrass, barnyard brass, green foxtail, cocklebur, velvetleaf and slender amarnth and seeds of corn, wheat and barley were sown in 1/5,000-are Wagner pots filled with upland soil, and covert with upland soil. Then, a predetermined amount of the herbicide prepared in the above (1) was suspended in water and uniformly sprayed onto the soil surface. Thereafter, the plant were grown in the greenhouse, and on the 20th day after the spraying treatment, the herbicide was evaluated for herbicidal efficacy.
(§4) The herbicidal efficacy and the phytotoxicity to crops are shown on the basis of the ratings described in (2) Foliar treatment test.

barnyard grass [2] = experiment: Upland soil treatment test (8); details: 1000 g a.i./hectare, 20th day after spraying
Procedure: as §1, §2, §3, §4

velvetleaf [3] = experiment: Upland soil treatment test (8); details: 1000 g a.i./hectare, 20th day after spraying
Procedure: as §1, §2, §3, §4

large crabgrass [4] = experiment: Upland soil treatment test (8); details: 1000 g a.i./hectare, 20th day after spraying
Procedure: as §1, §2, §3, §4

slender amaranth [5] = experiment: Upland soil treatment test (8); details: 1000 g a.i./hectare, 20th day after spraying
Procedure: as §1, §2, §3, §4

green foxtail [6] = experiment: Upland soil treatment test (8); details: 1000 g a.i./hectare, 20th day after spraying
Procedure: as §1, §2, §3, §4

cocklebur [7] = experiment: Upland soil treatment test (3); details: dosage 10 g a.i./are, 20th day after treatment
Procedure: as §1
(§5) (3) Biological Test (Upland Soil Treatment Test, Herbicide Examples 3 and 4 and Herbicide Comparative Examples 3 and 4)
as §3, with “barnyardgrass,” for “barnyard brass,”, “amaranth” for “amarnth”, “covered” for “covert”, “plants” for “plant”, “on” for “on the”, “the” for “the spraying”
as §4

barnyard grass [8] = experiment: Upland soil treatment test (3); details: dosage 10 g a.i./are, 20th day after treatment
Procedure: as §1, §5
as §3, with “barnyardgrass,” for “barnyard brass,”, “amaranth” for “amarnth”, “covered” for “covert”, “plants” for “plant”, “on” for “on the”, “the” for “the spraying”
as §4

velvetleaf [9] = experiment: Upland soil treatment test (3); details: dosage 10 g a.i./are, 20th day after treatment
Procedure: as §1, §5
as §3, with “barnyardgrass,” for “barnyard brass,”, “amaranth” for “amarnth”, “covered” for “covert”, “plants” for “plant”, “on” for “on the”, “the” for “the spraying”
as §4

large crabgrass [10] = experiment: Upland soil treatment test (3); details: dosage 10 g a.i./are, 20th day after treatment
Procedure: as §1, §5
as §3, with “barnyardgrass,” for “barnyard brass,”, “amaranth” for “amarnth”, “covered” for “covert”, “plants” for “plant”, “on” for “on the”, “the” for “the spraying”
as §4

slender amaranth [11] = experiment: Upland soil treatment test (3); details: dosage 10 g a.i./are, 20th day after treatment
Procedure: as §1, §5
as §3, with “barnyardgrass,” for “barnyard brass,”, “amaranth” for “amarnth”, “covered” for “covert”, “plants” for “plant”, “on” for “on the”, “the” for “the spraying”
as §4

green foxtail [12] = experiment: Upland soil treatment test (3); details: dosage 10 g a.i./are, 20th day after treatment
Procedure: as §1, §5
as §3, with “barnyardgrass,” for “barnyard brass,”, “amaranth” for “amarnth”, “covered” for “covert”, “plants” for “plant”, “on” for “on the”, “the” for “the spraying”
as §4

cocklebur [13] = experiment: Foliar treatment test (7); details: 1000 g a.i./hectare, 20th day after spraying
Procedure: as §1
(§6) (7) Biological Test (Foliar Treatment Test, Herbicide Examples 43-47 and Comparative Examples 11 and 12)
as §3, with “barnyardgrass,” for “barnyard brass,”, “amaranth” for “amarnth”, “covered” for “covert”, “The seeds were grown in a greenhouse, and at the stage of 1 to 2 leaves of these plants,” for “Then,”, “leaf and stalk portions at a rate of 200 liter/10 ares.” for “the soil surface.”, “plants” for “plant”
(§7) The herbicidal efficacy and phytotoxcity to crops were shown on the basis of the following ratings.
(§8) The ratio of remaining plant weight to non-treated was determined on the basis of the ratio of remaining plant weight to non-treated=(remaining plant weight in treated plot/remaining plant weight in non-treated plot)×100. This is also applicable to biological tests hereinafter.

velvetleaf [14] = experiment: Foliar treatment test (7); details: 1000 g a.i./hectare, 20th day after spraying
Procedure: as §1, §6
as §3, with “barnyardgrass,” for “barnyard brass,”, “amaranth” for “amarnth”, “covered” for “covert”, “The seeds were grown in a greenhouse, and at the stage of 1 to 2 leaves of these plants,” for “Then,”, “leaf and stalk portions at a rate of 200 liter/10 ares.” for “the soil surface.”, “plants” for “plant”
as §7, §8

barnyardgrass = experiment: Foliar treatment test (7); details: 1000 g a.i./hectare, 20th day after spraying
Procedure: as §1, §6
as §3, with “barnyardgrass,” for “barnyard brass,”, “amaranth” for “amarnth”, “covered” for “covert”, “The seeds were grown in a greenhouse, and at the stage of 1 to 2 leaves of these plants,” for “Then,”, “leaf and stalk portions at a rate of 200 liter/10 ares.” for “the soil surface.”, “plants” for “plant”
as §7, §8

large crabgrass [15] = experiment: Foliar treatment test (7); details: 1000 g a.i./hectare, 20th day after spraying
Procedure: as §1, §6
as §3, with “barnyardgrass,” for “barnyard brass,”, “amaranth” for “amarnth”, “covered” for “covert”, “The seeds were grown in a greenhouse, and at the stage of 1 to 2 leaves of these plants,” for “Then,”, “leaf and stalk portions at a rate of 200 liter/10 ares.” for “the soil surface.”, “plants” for “plant”
as §7, §8

slender amaranth [16] = experiment: Foliar treatment test (7); details: 1000 g a.i./hectare, 20th day after spraying
Procedure: as §1, §6
as §3, with “barnyardgrass,” for “barnyard brass,”, “amaranth” for “amarnth”, “covered” for “covert”, “The seeds were grown in a greenhouse, and at the stage of 1 to 2 leaves of these plants,” for “Then,”, “leaf and stalk portions at a rate of 200 liter/10 ares.” for “the soil surface.”, “plants” for “plant”
as §7, §8

green foxtail [17] = experiment: Foliar treatment test (7); details: 1000 g a.i./hectare, 20th day after spraying
Procedure: as §1, §6
as §3, with “barnyardgrass,” for “barnyard brass,”, “amaranth” for “amarnth”, “covered” for “covert”, “The seeds were grown in a greenhouse, and at the stage of 1 to 2 leaves of these plants,” for “Then,”, “leaf and stalk portions at a rate of 200 liter/10 ares.” for “the soil surface.”, “plants” for “plant”
as §7, §8

cocklebur [18] = experiment: Foliar treatment test (2); details: dosage 10 g a.i./are, 20th day after treatment
Procedure: as §1
(§9) (2) Biological Test (Foliar Treatment Test, Herbicide Examples 1 and 2 and Herbicide Comparative Examples 1 and 2)
(§10) Seeds of weeds such as large crabgrass, barnyard grass, green foxtail, cocklebur, velvetleaf and slender amaranth and seeds of corn, wheat and barley were sown in 1/5,000-are Wagner pots filled with upland soil, and covered with upland soil. The seeds were grown in a greenhouse, and at the stage of 1˜2 leaves of these plants, a predetermined amount of the herbicide prepared in the above (1) was suspended in water and uniformly sprayed onto leaf and stalk portions at a rate of 200 liter/10 are. Thereafter, the plants were grown in the greenhouse, and on 20th day after the treatment, the herbicide was evaluated for herbicidal efficacy.
as §7, §8

barnyard grass [19] = experiment: Foliar treatment test (2); details: dosage 10 g a.i./are, 20th day after treatment
Procedure: as §1, §9, §10, §7, §8

velvetleaf [20] = experiment: Foliar treatment test (2); details: dosage 10 g a.i./are, 20th day after treatment
Procedure: as §1, §9, §10, §7, §8

large crabgrass [21] = experiment: Foliar treatment test (2); details: dosage 10 g a.i./are, 20th day after treatment
Procedure: as §1, §9, §10, §7, §8

slender amaranth [22] = experiment: Foliar treatment test (2); details: dosage 10 g a.i./are, 20th day after treatment
Procedure: as §1, §9, §10, §7, §8

green foxtail [23] = experiment: Foliar treatment test (2); details: dosage 10 g a.i./are, 20th day after treatment
Procedure: as §1, §9, §10, §7, §8
Further: ranges in brackets are in %.

## Pyrazolate [x, reference compound]
Cocklebur [1]
  Herbicidal Efficacy cocklebur: 0 (81-100)
Barnyard grass [2]
  Herbicidal Efficacy barnyard grass: 0 (81-100)
Velvetleaf [3]
  Herbicidal Efficacy velvetleaf: 0 (81-100)
Large crabgrass [4]
  Herbicidal Efficacy large crabgrass: 0 (81-100)
Slender amaranth [5]
  Herbicidal Efficacy slender amaranth: 1 (61-80)
Green foxtail [6]
  Herbicidal Efficacy green foxtail: 0 (81-100)
Cocklebur [7]
  Herbicidal Efficacy cocklebur: 0 (81-100)
Barnyard grass [8]
  Herbicidal Efficacy barnyard grass: 0 (81-100)
Velvetleaf [9]
  Herbicidal Efficacy velvetleaf: 0 (81-100)
Large crabgrass [10]
  Herbicidal Efficacy large crabgrass: 0 (81-100)
Slender amaranth [11]
  Herbicidal Efficacy slender amaranth: 0 (81-100)
Green foxtail [12]
  Herbicidal Efficacy green foxtail: 0 (81-100)
Cocklebur [13]
  Herbicidal Efficacy cocklebur: 0 (81-100)
Velvetleaf [14]
  Herbicidal Efficacy velvetleaf: 0 (81-100)
barnyardgrass
  Herbicidal Efficacy barnyard grass: 0 (81-100)
Large crabgrass [15]
  Herbicidal Efficacy large crabgrass: 0 (81-100)
Slender amaranth [16]
  Herbicidal Efficacy slender amaranth: 0 (81-100)
Green foxtail [17]
  Herbicidal Efficacy green foxtail: 0 (81-100)
Cocklebur [18]
  Herbicidal Efficacy cocklebur: 0 (81-100)
Barnyard grass [19]
  Herbicidal Efficacy barnyard grass: 0 (81-100)
Velvetleaf [20]
  Herbicidal Efficacy velvetleaf: 0 (81-100)
Large crabgrass [21]
  Herbicidal Efficacy large crabgrass: 0 (81-100)
Slender amaranth [22]
  Herbicidal Efficacy slender amaranth: 1 (61-80)
Green foxtail [23]
  Herbicidal Efficacy green foxtail: 0 (81-100)
